Like-named read-outs stand apart in the source and are kept apart here.
Columns and labels:
solubility = conditions: 37: bromide salt; 20a, 20b: bromide salts
[1] = tested on: E. coli, P. aeruginosa, S. aureus; assay: MIC test in aqueous LB broth, summary of Table 5; format: cell-based
S. aureus (ATCC 6538) = assay: MIC test in LB broth comparing AgNO3 and complex 106; format: cell-based; design: key: +=growth; −=no growth
[2] = stability (air, light, water, chloride, storage)
[3] = tested on: P. aeruginosa (ATCC 9027); assay: MIC test in LB broth comparing AgNO3 and complex 106; format: cell-based; design: key: +=growth; −=no growth
E. coli (ATCC 8739) = assay: as above; format: cell-based; design: key: +=growth; −=no growth
[4] = tested on: Escherichia coli, Staphylococcus aureus, and Pseudomonas aeruginosa; assay: agar plates overlay method, summary of Table 2; format: cell-based
Description: The usefulness of the compounds represented by Formulas 103 and 55 as antimicrobial agents was evaluated. In this test, a filter paper disc of 6 mm diameter was soaked with 20 μL of a silver compound of known concentration, and placed over a lawn of an organism in the agar plate. The diameter of the area in which growth of the organism is inhibited by the test solution was measured after an over night incubation as a measure of the relative antimicrobial activity of the silver compounds. The test organisms were Escherichia coli, Staphylococcus aureus, and Pseudomonas aeruginosa.

Pseudomonas aeruginosa [5] = format: cell-based; conditions: 0.5% solution, 20 μL on 6 mm filter paper disc, over night
Description: (§1) In this test, a filter paper disc of 6 mm diameter was soaked with 20 μL of a silver compound of known concentration, and placed over a lawn of an organism in the agar plate. The diameter of the area in which growth of the organism is inhibited by the test solution was measured after an over night incubation as a measure of the relative antimicrobial activity of the silver compounds. The test organisms were Escherichia coli, Staphylococcus aureus, and Pseudomonas aeruginosa.

Staphylococcus aureus [6] = format: cell-based; conditions: 0.5% solution, 20 μL on 6 mm filter paper disc, over night
Description: as §1

Escherichia coli [7] = format: cell-based; conditions: 0.5% solution, 20 μL on 6 mm filter paper disc, over night
Description: as §1

rats = assay: Toxicity studies with rats, clearance by mass spectroscopy of the urine; format: in vivo
[8] = tested on: S. aureus, P. aeruginosa, and E. coli; assay: filter disk test and standard MIC technique; format: cell-based
[9] = LD50 in rats, preliminary studies; conditions: rat, in vivo, imidazolium cation portion
Source text: The imidazolium salt 1,3,9-trimethyl-7-(2,3-dihyroxypropyl)xanthinium iodide represented by Formula 201 is obtained by reacting 7-(2,3-dihydroxypropyl)theophylline (Formula 200) with methyl iodide in dimethylformamide. The imidazolium salt represented by Formula 201 reacts with silver acetate in methanol to yield the N-heterocyclic carbene silver(I) acetate complex (Formula 202), which is a white solid in 34% yield (structure confirmed by X-ray crystallography). The compound represented by Formula 202 is water soluble (Ksp=82 mg/mL) and is stable for at least 7 days in water by NMR. As the compound represented by Formula 202 decomposes to release Ag^+ thereby regenerating the cationic portion of the compound of Formula 201. The imidazolium cation portion of the compound represented by Formula 201 has an LD50 in rats of >2.0 g/kg in preliminary studies.

panel of E. coli = assay: MIC for a panel of E. coli (UTI strains), 96-well plate; conditions: Escherichia coli, 16 h
physchem = conditions: water
[10] = tested on: bladder carcinoma-derived T24 epithelial cell line (ATCC HTB-4); assay: In vitro toxicity, propidium iodide flow cytometry; format: cell-based
Description: A prerequisite for a topical biocide is that it confers acceptable toxicity to the tissue(s) of interest. In vitro toxicity of the compound represented by Formula 202 has been studied using the bladder carcinoma-derived T24 epithelial cell line (ATCC HTB-4). T24 cells were grown in RPMI 1640 medium available from Life Technologies (Carlsbad, Calif.) supplemented with 10% fetal bovine serum available from Sigma (St. Louis, Mo.), seeded into 24-well plates, and grown to confluence over 48 hours. Cells were washed with sterile phosphate buffered saline (PBS) and fresh warmed medium was added, either alone or containing the compound represented by Formula 202 (added to the medium at the start of the experiment to minimize premature liberation of Ag^+ from the compound represented by Formula 202) at concentrations between 5 and 50 μg/mL. After incubation for 1 to 2 hours, cells were released by treatment with 0.05% trypsin-0.02% EDTA, suspended in sorting buffer, stained with propidium iodide, and subjected to flow cytometry on a FACS Calibur instrument available from Becton Dickinson (Piscataway, N.J.).

Pseudomonas aeruginosa [11] = tested on: Pseudomonas aeruginosa
Escherichia coli [12] = tested on: Escherichia coli
Staphylococcus aureus [13] = conditions: Day 1
[14] = Day 1, 1DF: AgNO3 1731.18, 106 1675.74 μg/mL
[15] = Day 1, 2DF: AgNO3 865.59, 106 837.87 μg/mL
[16] = Day 1, 3DF: AgNO3 432.79, 106 418.94 μg/mL
[17] = Day 1, 4DF: AgNO3 216.40, 106 209.47 μg/mL
[18] = Day 1, undiluted: AgNO3 0.50 wt/V % (3462.35 μg/mL), 106 1.38 wt/V % (3341.48 μg/mL)
[19] = Day 2, 1DF: AgNO3 1731.18, 106 1675.74 μg/mL
[20] = Day 2, 2DF: AgNO3 865.59, 106 837.87 μg/mL
[21] = Day 2, 3DF: AgNO3 432.79, 106 418.94 μg/mL
[22] = Day 2, 4DF: AgNO3 216.40, 106 209.47 μg/mL
[23] = Day 2, undiluted: AgNO3 0.50 wt/V % (3462.35 μg/mL), 106 1.38 wt/V % (3341.48 μg/mL)
[24] = Day 1, supernatant undiluted (Ag: 103 1186, 105 1125, AgN03 3176)
[25] = Day 2, supernatant undiluted (Ag: 103 1186, 105 1125, AgN03 3176)

OC1(O)CN2C=CN3Cc4cccc(n4)CN4C=CN(C1)[CH]4[Ag+][CH]1N4C=CN1CC(O)(O)CN1C=CN(Cc5cccc(n5)C4)[CH]1[Ag][CH]32 [Complex 106]
solubility in water / aqueous media (solubility): sparingly soluble in water
antimicrobial activity of the aqueous form, fold less effective than 0.5% AgNO3 ([1]; about the same amount of silver): 2 fold
MIC ([1]; after 48 hrs of incubation, read-out: MIC concentration): 838 µg/mL
growth / no growth (S. aureus (ATCC 6538); [14]): −
growth / no growth (S. aureus (ATCC 6538); [15]): −
growth / no growth (S. aureus (ATCC 6538); [16]): −
growth / no growth (S. aureus (ATCC 6538); [17]): −
growth / no growth (S. aureus (ATCC 6538); [18]): −
growth / no growth (S. aureus (ATCC 6538); [19]): −
growth / no growth (S. aureus (ATCC 6538); [20]): −
growth / no growth (S. aureus (ATCC 6538); [21]): +
growth / no growth (S. aureus (ATCC 6538); [22]): +
growth / no growth (S. aureus (ATCC 6538); [23]): −
stability in air and light [2]: air and light stable
stability in water ([2]; 37: bromide salt, 20a, 20b: bromide salts): quick decomposition
growth / no growth [3, 14]: −
growth / no growth [3, 15]: −
growth / no growth [3, 16]: −
growth / no growth [3, 17]: −
growth / no growth [3, 18]: −
growth / no growth [3, 19]: −
growth / no growth [3, 20]: −
growth / no growth [3, 21]: +
growth / no growth [3, 22]: +
growth / no growth [3, 23]: −
growth / no growth (E. coli (ATCC 8739); [14]): −
growth / no growth (E. coli (ATCC 8739); [15]): −
growth / no growth (E. coli (ATCC 8739); [16]): −
growth / no growth (E. coli (ATCC 8739); [17]): −
growth / no growth (E. coli (ATCC 8739); [18]): −
growth / no growth (E. coli (ATCC 8739); [19]): −
growth / no growth (E. coli (ATCC 8739); [20]): −
growth / no growth (E. coli (ATCC 8739); [21]): +
growth / no growth (E. coli (ATCC 8739); [22]): +
growth / no growth (E. coli (ATCC 8739); [23]): −

OCCN1C=CN(Cc2cccc(CN3C=CN(CCO)C3)n2)C1 [Compound 101]
antimicrobial properties (Table 2 summary) [4]: no antimicrobial activity
Diameter of Inhibited Area (Pseudomonas aeruginosa [5]): 6 mm
Diameter of Inhibited Area (Staphylococcus aureus [6]): 6 mm
Diameter of Inhibited Area (Escherichia coli [7]): 6 mm

OCCCN1C=CN(Cc2cccc(CN3C=CN(CCCO)C3)n2)C1 [Compound 102]
antimicrobial properties (Table 2 summary) [4]: no antimicrobial activity
Diameter of Inhibited Area (Pseudomonas aeruginosa [5]): 6 mm
Diameter of Inhibited Area (Staphylococcus aureus [6]): 6 mm
Diameter of Inhibited Area (Escherichia coli [7]): 6 mm

OCCN1C=CN(CN2C=CN(CCO)C2)C1 [Formula 13]
solubility in water / aqueous media (solubility): water soluble

OCC[n+]1ccn(Cc2cccc(Cn3cc[n+](CCO)c3)n2)c1.[Br-].[Br-] [Formula 19a]
toxicity (rats): low toxicity
clearance through the kidneys (rats; mass spectroscopy of the urine): clears within two days

CC(=O)[O][Ag][CH]1N(C)c2c(n(C)c(=O)n(C)c2=O)N1C (stereo not shown) [Formula 100]
antimicrobial activity [8]: effective antimicrobial activity
stability in air and light [2]: air stable

CN1CN(CC(O)CO)c2c1n(C)c(=O)n(C)c2=O (stereo not shown) [Formula 201]
LD50 [9]: > 2000 mg/kg

CC(=O)[O][Ag][CH]1N(C)c2c(c(=O)n(C)c(=O)n2C)N1CC(O)CO (stereo not shown) [Formula 202]
MIC (panel of E. coli): 2 to 4 µg/mL
solubility (physchem): 82 mg/mL
shelf life ([2]; room temperature): several months
stable in solid form ([2]; solid form): a couple months
stable in water by NMR ([2]; water): at least 7 days
loss of viability ([10]; 1 h of treatment at 5 μg/mL): ~5%
loss of viability ([10]; 2 hours of treatment at 5 μg/mL): approximately 11%

silver nitrate [AgNO3, reference compound]
growth / no growth (S. aureus (ATCC 6538); [14]): −
growth / no growth (S. aureus (ATCC 6538); [15]): −
growth / no growth (S. aureus (ATCC 6538); [16]): −
growth / no growth (S. aureus (ATCC 6538); [17]): −
growth / no growth (S. aureus (ATCC 6538); [18]): −
growth / no growth (S. aureus (ATCC 6538); [19]): −
growth / no growth (S. aureus (ATCC 6538); [20]): −
growth / no growth (S. aureus (ATCC 6538); [21]): −
growth / no growth (S. aureus (ATCC 6538); [22]): +
growth / no growth (S. aureus (ATCC 6538); [23]): −
Diameter of Inhibited Area (Pseudomonas aeruginosa [5]): 11 mm
Diameter of Inhibited Area (Staphylococcus aureus [6]): 10.88 mm
Diameter of Inhibited Area (Escherichia coli [7]): 11.38 mm
growth(+) or no growth(−) (Pseudomonas aeruginosa [11]; [24]): −
growth(+) or no growth(−) (Pseudomonas aeruginosa [11]; Day 1, supernatant x 1DF): +
growth(+) or no growth(−) (Pseudomonas aeruginosa [11]; Day 1, supernatant x 2DF): +
growth(+) or no growth(−) (Pseudomonas aeruginosa [11]; Day 1, supernatant x 3DF): +
growth(+) or no growth(−) (Pseudomonas aeruginosa [11]; Day 1, supernatant x 4DF): +
growth(+) or no growth(−) (Pseudomonas aeruginosa [11]; [25]): +
growth / no growth [3, 14]: −
growth / no growth [3, 15]: −
growth / no growth [3, 16]: −
growth / no growth [3, 17]: −
growth / no growth [3, 18]: −
growth / no growth [3, 19]: −
growth / no growth [3, 20]: −
growth / no growth [3, 21]: −
growth / no growth [3, 22]: −
growth / no growth [3, 23]: −
growth / no growth (E. coli (ATCC 8739); [14]): −
growth / no growth (E. coli (ATCC 8739); [15]): −
growth / no growth (E. coli (ATCC 8739); [16]): −
growth / no growth (E. coli (ATCC 8739); [17]): −
growth / no growth (E. coli (ATCC 8739); [18]): −
growth / no growth (E. coli (ATCC 8739); [19]): −
growth / no growth (E. coli (ATCC 8739); [20]): −
growth / no growth (E. coli (ATCC 8739); [21]): −
growth / no growth (E. coli (ATCC 8739); [22]): +
growth / no growth (E. coli (ATCC 8739); [23]): −
growth(+) or no growth(−) (Escherichia coli [12]; [24]): −
growth(+) or no growth(−) (Escherichia coli [12]; Day 1, supernatant x 1DF): +
growth(+) or no growth(−) (Escherichia coli [12]; Day 1, supernatant x 2DF): +
growth(+) or no growth(−) (Escherichia coli [12]; Day 1, supernatant x 3DF): +
growth(+) or no growth(−) (Escherichia coli [12]; Day 1, supernatant x 4DF): +
growth(+) or no growth(−) (Escherichia coli [12]; [25]): +
growth(+) or no growth(−) (Staphylococcus aureus [13]; supernatant undiluted (Ag: 103 1186, 105 1125, AgN03 3176)): +
growth(+) or no growth(−) (Staphylococcus aureus [13]; supernatant x 1DF): +
growth(+) or no growth(−) (Staphylococcus aureus [13]; supernatant x 2DF): +
growth(+) or no growth(−) (Staphylococcus aureus [13]; supernatant x 3DF): +
growth(+) or no growth(−) (Staphylococcus aureus [13]; supernatant x 4DF): +

Source: US8648205B2, “Metal complexes of N-heterocyclic carbenes” (The University of Akron, priority 2003, dated 2014)
